Reference: patent US12310975B2, “Modulators of BCL6 proteolysis and associated methods of use” (Arvinas Operations, Inc., priority 2019, dated 2025)

Key:
BCL6 [1] = biological target: T1, BCL6 (Homo sapiens (Human), UniProt P41182); assay: BCL6 TR-FRET assay (BCL6-Avitag-Biotin / BCoR-Cy5 peptide); assay type: binding
Procedure, shortened: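 After 30 min room-temperature preincubation of compound titrations with 2 nM biotinylated BCL6-Avitag, 100 nM Cy5-labelled BCoR peptide plus 2 nM Eu-streptavidin were added and TR-FRET read 2 h later. HEPES pH 7.5/125 mM NaCl buffer with Triton X, glutathione (or DTT) and BSA.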

BCL6 [2] = biological target: T1, BCL6; assay: Immunofluorescence high content imaging of BCL6 degradation in T47D cells; assay type: cell-based; conditions: for Dmax: T47D; for DC50: class symbols A-D, read-out: EC50 (nM)*
Procedure, shortened: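 T47D, 3 d compound exposure, 11-pt 3-fold series, top 0.1 or 1 μM final. Fix 4% PFA, Triton permeabilize, anti-BCL6 primary overnight 4 °C, Alexa-488 secondary. High-content imaging 10×, 4 fields/well, top-hat smoothing.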

[3] = class symbols A-D, read-out: IC50 (nM)***

## CNC(=O)COc1cc2cc(Nc3nc(N4CCN5CCN(c6ccc7c(c6)C(=O)N(C6CCC(=O)NC6=O)C7=O)CC5C4)ncc3Cl)ccc2n(C)c1=O (stereo not drawn) [compound 234, 2-((6-((5-chloro-2-(8-(2-(2,6-dioxopiperidin-3-yl)-1,3-dioxoisoindolin-5-yl)octahydro-2H-pyrazino[1,2-a]pyrazin-2-yl)pyrimidin-4-yl)amino)-1-methyl-2-oxo-1,2-dihydroquinolin-3-yl)oxy)-N-methylacetamide]
BCL6 [1]
  EC50: < 10 nM
BCL6 [2]
  IC50: ≥ 100 nM

## Cn1c(=O)cc(NC(C)(C)c2ncccn2)c2cc(Nc3nc(N4CCC(CN5CCN(c6ccc7c(c6)C(=O)N(C6CCC(=O)NC6=O)C7=O)CC5)CC4)ncc3Cl)ccc21 (stereo not drawn) [compound 156, 5-(4-((1-(5-chloro-4-((1-methyl-2-oxo-4-((2-(pyrimidin-2-yl)propan-2-yl)amino)-1,2-dihydroquinolin-6-yl)amino)pyrimidin-2-yl)piperidin-4-yl)methyl)piperazin-1-yl)-2-(2,6-dioxopiperidin-3-yl)isoindoline-1,3-dione]
BCL6 [1]; [3]
  IC50: ≥ 100 nM
BCL6 [2]; maximum, class symbols A-C
  Dmax: < 50%
BCL6 [2]
  DC50: > 100 nM

## CNC(=O)COc1cc2cc(Nc3nc(N4CCC(N(C)C5CCN(CC6CCN(c7ccc(C#Cc8ccc9c(c8)CN(C8CCC(=O)NC8=O)C9=O)cc7)CC6)CC5)CC4)ncc3Cl)ccc2n(C)c1=O (stereo not drawn) [compound 138, 2-((6-((5-chloro-2-(4-((1-((1-(4-((2-(2,6-dioxopiperidin-3-yl)-1-oxoisoindolin-5-yl)ethynyl)phenyl)piperidin-4-yl)methyl)piperidin-4-yl) (methyl)amino)piperidin-1-yl)pyrimidin-4-yl)amino)-1-methyl-2-oxo-1,2-dihydroquinolin-3-yl)oxy)-N-methylacetamide]
BCL6 [1]; [3]
  IC50: < 10 nM
BCL6 [2]; maximum, class symbols A-C
  Dmax: < 50%
BCL6 [2]
  DC50: 10 to 50 nM

## CNC(=O)COc1cc2cc(Nc3nc(N4CCC(CN5CCN(c6cc(OC)cc(C(=O)NC7CCC(=O)NC7=O)c6F)CC5)CC4)ncc3Cl)ccc2n(C(C)C)c1=O (stereo not drawn) [compound 466, 3-[4-({1-[5-chloro-4-({3-[(methylcarbamoyl)methoxy]-2-oxo-1-(propan-2-yl)-1,2-dihydroquinolin-6-yl}amino)pyrimidin-2-yl]piperidin-4-yl}methyl)piperazin-1-yl]-N-(2,6-dioxopiperidin-3-yl)-2-fluoro-5-methoxybenzamide]
BCL6 [1]; read-out: IC50
  IC50: < 10 nM
BCL6 [2]
  Dmax: 50 to 70%

## CNC(=O)COc1cc2cc(Nc3nc(N4CCC(C5(N6CCC(c7ccc8c(c7)C(=O)N(C7CCC(=O)NC7=O)C8=O)CC6)CC5)CC4)ncc3Cl)ccc2n(C(C)C)c1=O (stereo not drawn) [compound 488, 2-{[6-({5-chloro-2-[4-(1-{4-[2-(2,6-dioxopiperidin-3-yl)-1,3-dioxo-2,3-dihydro-1H-isoindol-5-yl]piperidin-1-yl}cyclopropyl)piperidin-1-yl]pyrimidin-4-yl}amino)-2-oxo-1-(propan-2-yl)-1,2-dihydroquinolin-3-yl]oxy}-N-methylacetamide]
BCL6 [1]; read-out: IC50
  IC50: < 10 nM
BCL6 [2]
  Dmax: 50 to 70%
